Experiments:
Type in all cases: biochemical
KDR (VEGFR2) = KDR (VEGFR2) (Homo sapiens, UniProt P35968); test: KDR (VEGFR2) in vitro kinase activity assay (HTRF kinEASE TK); conditions: for inhibition at 0.01 µM: compound 10 nM, read-out: VEGFR2 inhibition rate, 10 nM; for inhibition at 0.1 µM: compound 100 nM, read-out: VEGFR2 inhibition rate, 100 nM
Description: (§1) CSF-1R, PDGFR-α, KDR (VEGFR2) and KIT in vitro Kinase Activity Assay:
(§2) • ENVISION (Perkinelmer, 2104) • White 384-well MicroPlate (Cat #264706, Nunc) • HTRF kinEASE TK kit main reagents (Cat #62TKOPEC, Cisbio) • TK-biotin substrate • Streptavidin-XL665 • TK Antibody-Cryptate • 5× Enzymatic buffer (5×KB) • Staphylococcal enterotoxin B (SEB) • HTRF Detection buffer • CSF-1R (Cat #PV3249, Invitrogen) • PDGFR-α (Cat #PV3811, Invitrogen) • KDR (Cat #PV3660, Invitrogen) • KIT (Cat #08-156, Carna) • ATP 10 mM (Cat #PV3227, Invitrogen) • DTT 1 M (Cat #D5545, Sigma) • MgCl2 1 M (Cat #M8266, Sigma) • MnCl2 1 M (Cat #244589, Sigma)
(§3) Dilute Substrate-TK and ATP to 5× of the reaction concentration using 1× Kinase Buffer.
(§4) Prepare the 5× enzyme working solution using 1× Kinase Buffer.
(§5) Prepare the 4×Sa-XL665 working solution using Detection Buffer.
(§6) Dilute TK-Ab-Cryptate 100 times using Detection Buffer to prepare the working solution.
(§7) After all reagents were prepared according to the methods described above, except for the enzyme, they were equilibrated to room temperature before starting the sample addition. • a) First, 2.5% DMSO solutions were prepared separately using the pre-prepared 1× kinase buffer (DMSO concentrations that were too high could affect the reaction, so the final concentration of DMSO was controlled at 1%). Then, the corresponding 2.5% DMSO solution for the enzyme was used to dilute the test compounds. Compounds were screened with two concentrations of 100 nM and 10 nM. Except for the control wells, 4 μL of the diluted test compound solution was added to the reaction wells, and 4 μL of the pre-prepared 2.5% DMSO solution was added to the control wells. • b) 2 μL of the pre-prepared TK-biotin substrate solution at the corresponding concentration for the kinase was added to all reaction wells. • c) 2 μL of the pre-prepared enzyme solution at the corresponding concentration was added to all reaction wells except the negative control wells. For the negative control wells, 2 μL of 1× kinase buffer corresponding to the enzyme was added to make up the volume. The plate was sealed with sealing film, mixed gently, and incubated at room temperature for 10 min to allow the compounds to fully interact with the enzyme. • d) 2 μL of the ATP solution at the corresponding concentration for the enzyme was added to all reaction wells to initiate the kinase reaction. ATP concentrations and reaction times for enzyme screening are shown in Table 26 • e) Five minutes before the end of the kinase reaction, the detection solution was prepared. The detection buffer from the kit was used to prepare detection solutions for Streptavidin-XL665 and TK antibody europium cryptate (1:100) at the appropriate concentrations for the two enzymes. • f) After the kinase reaction was completed, 5 μL of the diluted Streptavidin-XL665 solution was added to all reaction wells. After mixing, the diluted TK antibody europium cryptate detection solution was immediately added. • g) The plate was sealed and mixed, incubated at room temperature for 1 hour, and the fluorescence signal was detected using the ENVISION (PerkinElmer) instrument (excitation at 320 nm, emission at 665 nm and 615 nm). The inhibition rate for each well was calculated based on the full-activity control wells and background signal wells, and the average value of the replicates was taken.

KIT = KIT (Homo sapiens, UniProt P10721); test: KIT in vitro kinase activity assay (HTRF kinEASE TK); conditions: for inhibition at 0.01 µM: compound 10 nM, read-out: KIT inhibition rate, 10 nM; for inhibition at 0.1 µM: compound 100 nM, read-out: KIT inhibition rate, 100 nM
Chain of KIT (P10721 26-976): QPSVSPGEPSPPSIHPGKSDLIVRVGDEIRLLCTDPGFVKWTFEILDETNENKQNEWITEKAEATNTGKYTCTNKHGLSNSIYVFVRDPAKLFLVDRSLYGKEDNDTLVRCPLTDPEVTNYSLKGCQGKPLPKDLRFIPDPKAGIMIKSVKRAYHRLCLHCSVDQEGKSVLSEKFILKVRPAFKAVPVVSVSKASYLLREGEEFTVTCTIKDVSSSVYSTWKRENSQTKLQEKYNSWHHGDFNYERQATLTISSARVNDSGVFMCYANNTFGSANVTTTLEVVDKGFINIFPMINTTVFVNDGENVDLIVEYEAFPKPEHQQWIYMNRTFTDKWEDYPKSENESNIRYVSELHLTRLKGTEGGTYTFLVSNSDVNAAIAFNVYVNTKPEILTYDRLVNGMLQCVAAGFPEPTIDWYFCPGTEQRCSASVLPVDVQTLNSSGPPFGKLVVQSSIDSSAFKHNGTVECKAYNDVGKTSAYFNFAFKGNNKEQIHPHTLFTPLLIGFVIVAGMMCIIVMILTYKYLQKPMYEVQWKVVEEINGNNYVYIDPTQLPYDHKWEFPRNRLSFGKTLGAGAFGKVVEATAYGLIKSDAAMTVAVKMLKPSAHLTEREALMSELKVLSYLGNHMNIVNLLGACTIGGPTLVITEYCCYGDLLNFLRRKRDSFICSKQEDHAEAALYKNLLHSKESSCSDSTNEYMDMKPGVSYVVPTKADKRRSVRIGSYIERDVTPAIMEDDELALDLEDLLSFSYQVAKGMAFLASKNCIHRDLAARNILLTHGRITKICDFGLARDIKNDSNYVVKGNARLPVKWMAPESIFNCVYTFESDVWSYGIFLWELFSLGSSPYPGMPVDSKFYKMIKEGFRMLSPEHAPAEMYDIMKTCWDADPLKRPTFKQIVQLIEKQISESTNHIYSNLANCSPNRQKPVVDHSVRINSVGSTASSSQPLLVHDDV
Description: as §1, §2, §3, §4, §5, §6, §7

CSF-1R = CSF-1R (Homo sapiens, UniProt P07333); test: CSF-1R in vitro kinase activity assay (HTRF kinEASE TK); conditions: for inhibition at 0.01 µM: compound 10 nM, read-out: CSF-1R inhibition rate, 10 nM; for inhibition at 0.1 µM: compound 100 nM, read-out: CSF-1R inhibition rate, 100 nM
Chain of CSF-1R (P07333 20-972): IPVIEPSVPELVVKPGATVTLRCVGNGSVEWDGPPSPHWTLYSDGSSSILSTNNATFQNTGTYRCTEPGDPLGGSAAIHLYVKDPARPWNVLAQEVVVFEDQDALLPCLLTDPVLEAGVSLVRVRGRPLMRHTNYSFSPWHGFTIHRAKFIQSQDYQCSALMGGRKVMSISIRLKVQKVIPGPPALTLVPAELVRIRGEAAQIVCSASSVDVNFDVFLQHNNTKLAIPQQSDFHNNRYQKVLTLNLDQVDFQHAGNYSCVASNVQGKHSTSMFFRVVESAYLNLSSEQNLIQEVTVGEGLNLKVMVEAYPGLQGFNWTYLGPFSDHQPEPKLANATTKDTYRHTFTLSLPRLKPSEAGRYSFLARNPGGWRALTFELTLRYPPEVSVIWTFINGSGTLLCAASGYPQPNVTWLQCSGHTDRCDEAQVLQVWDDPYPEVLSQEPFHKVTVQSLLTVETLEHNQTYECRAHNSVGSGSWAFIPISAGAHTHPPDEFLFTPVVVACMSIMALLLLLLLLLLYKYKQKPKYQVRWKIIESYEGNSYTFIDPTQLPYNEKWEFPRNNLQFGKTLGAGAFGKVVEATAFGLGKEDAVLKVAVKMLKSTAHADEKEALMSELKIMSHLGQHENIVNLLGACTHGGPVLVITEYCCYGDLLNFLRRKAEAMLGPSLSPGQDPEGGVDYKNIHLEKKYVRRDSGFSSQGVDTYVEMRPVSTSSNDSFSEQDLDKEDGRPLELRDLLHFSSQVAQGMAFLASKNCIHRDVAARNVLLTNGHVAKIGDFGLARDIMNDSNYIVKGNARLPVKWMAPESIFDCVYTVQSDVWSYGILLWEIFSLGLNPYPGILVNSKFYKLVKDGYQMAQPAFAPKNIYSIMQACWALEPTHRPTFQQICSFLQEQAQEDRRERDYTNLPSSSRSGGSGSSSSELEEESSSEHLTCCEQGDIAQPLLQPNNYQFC
Description: as §1, §2, §3, §4, §5, §6, §7

Chain of KDR (VEGFR2) (P35968 20-1356): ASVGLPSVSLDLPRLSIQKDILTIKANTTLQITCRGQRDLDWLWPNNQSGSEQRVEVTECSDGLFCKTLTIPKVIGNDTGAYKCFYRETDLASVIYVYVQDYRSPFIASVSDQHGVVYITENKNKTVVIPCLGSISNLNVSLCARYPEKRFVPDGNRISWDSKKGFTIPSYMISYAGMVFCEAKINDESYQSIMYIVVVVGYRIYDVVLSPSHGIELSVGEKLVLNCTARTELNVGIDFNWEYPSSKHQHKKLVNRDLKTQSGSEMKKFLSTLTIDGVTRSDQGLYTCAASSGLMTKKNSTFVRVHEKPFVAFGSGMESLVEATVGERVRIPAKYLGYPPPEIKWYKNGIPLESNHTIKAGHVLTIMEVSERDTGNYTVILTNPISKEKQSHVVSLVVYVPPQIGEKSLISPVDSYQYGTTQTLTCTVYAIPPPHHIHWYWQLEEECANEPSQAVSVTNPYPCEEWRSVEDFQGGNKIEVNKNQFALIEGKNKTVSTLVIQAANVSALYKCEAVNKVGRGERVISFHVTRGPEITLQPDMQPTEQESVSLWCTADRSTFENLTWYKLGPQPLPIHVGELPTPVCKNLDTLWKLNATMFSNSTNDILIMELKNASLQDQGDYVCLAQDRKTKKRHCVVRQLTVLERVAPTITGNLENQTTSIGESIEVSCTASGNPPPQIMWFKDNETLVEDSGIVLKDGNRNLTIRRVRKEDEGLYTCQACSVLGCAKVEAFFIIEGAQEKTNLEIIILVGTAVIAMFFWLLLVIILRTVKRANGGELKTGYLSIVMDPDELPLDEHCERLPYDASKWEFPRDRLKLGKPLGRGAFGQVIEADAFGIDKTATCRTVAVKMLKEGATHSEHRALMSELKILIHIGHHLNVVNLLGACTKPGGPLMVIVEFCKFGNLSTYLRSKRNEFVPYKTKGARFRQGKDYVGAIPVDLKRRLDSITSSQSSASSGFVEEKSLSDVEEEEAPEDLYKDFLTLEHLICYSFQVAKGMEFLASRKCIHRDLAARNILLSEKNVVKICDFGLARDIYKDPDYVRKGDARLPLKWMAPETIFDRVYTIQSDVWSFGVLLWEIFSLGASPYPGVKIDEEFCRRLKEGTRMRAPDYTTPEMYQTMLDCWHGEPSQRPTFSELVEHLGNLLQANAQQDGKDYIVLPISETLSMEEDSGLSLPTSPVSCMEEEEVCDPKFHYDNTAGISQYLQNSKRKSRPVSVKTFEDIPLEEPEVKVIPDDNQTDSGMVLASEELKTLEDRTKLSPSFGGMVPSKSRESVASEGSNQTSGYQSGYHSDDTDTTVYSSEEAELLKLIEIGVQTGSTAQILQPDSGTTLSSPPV

Compound | inhibition at 0.01 µM (KDR (VEGFR2)) [%] | inhibition at 0.1 µM (KDR (VEGFR2)) [%] | inhibition at 0.01 µM (KIT) [%] | inhibition at 0.1 µM (KIT) [%] | inhibition at 0.01 µM (CSF-1R) [%] | inhibition at 0.1 µM (CSF-1R) [%]
Cn1cc(-c2cnc(N)c(O[C@H]3CCc4c(C(=O)Nc5cccc(C6CC6)c5)cccc43)c2)cn1 [Compound 4, (S)-1-((2-amino-5-(1-methyl-1H-pyrazol-4-yl)pyridin-3-yl)oxy)-N-(3-cyclopropylphenyl)-2,3-dihydro-1H-indene-4-carboxamide] | 97.8 | 100 | 76.8 | 99.2 | 80.1 | 89.8
Cc1cccc(NC(=O)c2cccc3c2CC[C@@H]3Nc2cncc(-c3cnn(C)c3)c2)c1 [Compound 13, (S)-1-((5-(1-methyl-1H-pyrazol-4-yl)pyridin-3-yl)amino)-N-(m-tolyl)-2,3-dihydro-1H-indene-4-carboxamide] | 95.3 | 99.5 | 73 | 97.5 | 79.9 | 93.5
Cn1cc(-c2cncc(N[C@H]3CCc4c(C(=O)Nc5cncc(Cl)c5)cccc43)c2)cn1 [Compound 14aa, (S)—N-(5-chloropyridin-3-yl)-1-((5-(1-methyl-1H-pyrazol-4-yl)pyridin-3-yl)amino)-2,3-dihydro-1H-indene-4-carboxamide] | 83.1 | 99.6 | 61.9 | 97.3 | 74.6 | 95.3
Cn1cc(-c2cncc(N[C@H]3CCc4c(C(=O)Nc5ccc(C(F)(F)F)nc5)cccc43)c2)cn1 [Compound 14ah] | 26.8 | 58.1 | 11.3 | 83.3 | 41 | 101
CN1CCc2ccc(NC(=O)c3cccc4c3CC[C@@H]4Nc3cncc(-c4cnn(C)c4)c3)cc2C1 [Compound 14ap] | 14.7 | 66.2 | 30.5 | 80.7 | 63.5 | 96.7
Cc1cncc(NC(=O)c2cccc3c2CC[C@@H]3Nc2cncc(-c3cnn(C)c3)c2)c1 [Compound 14as] | 88.4 | 102 | 58.7 | 94.7 | 89.7 | 97
CN1CCc2nc(NC(=O)c3cccc4c3CC[C@@H]4Nc3cncc(-c4cnn(C)c4)c3)sc2C1 [Compound 14ba] | 29.2 | 82.6 | 60.1 | 95 | 42.1 | 95.9
Cc1cccc(C(=O)Nc2cccc3c2CC[C@@H]3Oc2cncc(-c3cnn(C)c3)c2)c1 [Compound 15, (S)-3-methyl-N-(1-((5-(1-methyl-1H-pyrazol-4-yl)pyridin-3-yl)oxy)-2,3-dihydro-1H-inden-4-yl)benzamide] | 60 | 97.3 | 13.3 | 31.6 | 49 | 90.5
Cn1cc(-c2cncc(O[C@H]3CCc4c(C(=O)Nc5cncc(Cl)c5)cccc43)c2)cn1 [Compound 19a, (S)—N-(5-chloropyridin-3-yl)-1-((5-(1-methyl-1H-pyrazol-4-yl)pyridin-3-yl)oxy)-2,3-dihydro-1H-indene-4-carboxamide] | 92.3 | 101 | 22.1 | 48.6 | 79.4 | 100
Cn1cc(-c2cncc(O[C@H]3CCc4c(C(=O)Nc5cccc(C6CC6)c5)cccc43)c2)cn1 [Compound 19b] | 93.6 | 102 | 11.2 | 80.2 | 71.9 | 97.4
CN1CCc2nc(NC(=O)c3cccc4c3CC[C@@H]4Oc3cncc(-c4cnn(C)c4)c3)sc2C1 [Compound 19f] | 22.7 | 88.9 | 12.1 | 53.9 | 27.5 | 95.4
CN(C)Cc1cncc(NC(=O)c2cccc3c2CC[C@@H]3Oc2cncc(-c3cnn(C)c3)c2)c1 [Compound 19h] | 24.6 | 84.4 | -3.9 | 4.9 | 72 | 96.6
Cc1cncc(NC(=O)c2cccc3c2CC[C@@H]3Oc2cncc(-c3cnn(C)c3)c2)c1 [Compound 19j] | 91.7 | 102 | 14.5 | 62.8 | 80.1 | 101
Cc1cc(NC(=O)c2cccc3c2CC[C@@H]3Oc2cncc(-c3cnn(C)c3)c2)cc(C)n1 [Compound 19k, (S)—N-(2,6-dimethylpyridin-4-yl)-1-((5-(1-methyl-1H-pyrazol-4-yl)pyridin-3-yl)oxy)-2,3-dihydro-1H-indene-4-carboxamide] | 53 | 99.1 | 21.8 | 63.7 | 57.6 | 97.4
CN(c1cncc(-c2cnn(C)c2)c1)[C@H]1CCc2c(C(=O)Nc3cncc(Cl)c3)cccc21 [Compound 21, (S)—N-(5-chloropyridin-3-yl)-1-(methyl (5-(1-methyl-1H-pyrazol-4-yl)pyridin-3-yl)amino)-2,3-dihydro-1H-indene-4-carboxamide] | 22.3 | 62.6 | 2.4 | 15.3 | 48.6 | 100
CN(c1cncc(-c2cnn(C)c2)c1)[C@H]1CCc2c(C(=O)Nc3cccc(C4CC4)c3)cccc21 [Compound 22a, (S)—N-(3-cyclopropylphenyl)-1-(methyl (5-(1-methyl-1H-pyrazol-4-yl)pyridin-3-yl)amino)-2,3-dihydro-1H-indene-4-carboxamide] | 52.5 | 96.4 | 5.8 | 27.2 | 34 | 96.7
Cn1cc(-c2cncc(N[C@H]3CCc4c(C(=O)Nc5nn(C)c6ccccc56)cccc43)n2)cn1 [Compound 27g, (S)—N-(1-methyl-1H-indazol-3-yl)-1-((6-(1-methyl-1H-pyrazol-4-yl)pyrazin-2-yl)amino)-2,3-dihydro-1H-indene-4-carboxamide] | 88.9 | 100 | 89.6 | 100 | 75.2 | 95.8
Cn1cc(-c2cncc(N[C@H]3CCc4c(Nc5cc(C(C)(C)C)on5)cccc43)c2)cn1 [Compound 41, (S)—N^4-(5-(tert-butyl)isoxazol-3-yl)-N^1-(5-(1-methyl-1H-pyrazol-4-yl)pyridin-3-yl)-2,3-dihydro-1H-indene-1,4-diamine] | 18.6 | 63.9 | 7.5 | 66.4 | 26.9 | 100
Cn1cc(-c2cncc(N[C@H]3CCc4c(Nc5noc(C(C)(C)C)n5)cccc43)c2)cn1 [Compound 42o] | 28.9 | 65.6 | 14.5 | 38.8 | 55.8 | 100
